Laboratory results taken from ChEMBL document CHEMBL1909294, “Translating clinical findings into knowledge in drug safety evaluation--drug induced liver injury prediction system (DILIps)” (PLoS Comput Biol, 2011).

Tests used:
Hepatotoxicity [1] = tested on: Hepatotoxicity;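 on HepSE bilirubinemia: bilirubinemia hepatic side effect score drawn from the DILIps training data, a prediction system for drug-induced liver injury; call rule not given here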;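 on HepSE cholecystitis: Cholecystitis-related hepatic side effect score drawn from the DILIps (drug-induced liver injury prediction) training data set; call rule not given here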;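 on HepSE cholelithiasis: hepatic side effect score for cholelithiasis, drawn from the DILIps training data for predicting drug-induced liver injury; call rule not given here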;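 on HepSE cirrhosis: cirrhosis hepatic side effect score taken from the DILIps (drug-induced liver injury prediction) training set; call rule not given here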;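 on HepSE elevated liver function tests: hepatic side effect score for raised liver function tests, as recorded in the DILIps training set used for predicting drug-induced liver injury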; on HepSE hepatic failure: call rule not given here;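 on HepSE hepatomegaly: hepatic side effect score for hepatomegaly, taken from the training set of the DILIps drug-induced liver injury prediction system; call rule not given here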
Hepatotoxicity [2] = tested on: Hepatotoxicity; remark: listed apart in the source;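 on HepSE bilirubinemia: bilirubinemia hepatic side effect score drawn from the DILIps training data, a prediction system for drug-induced liver injury; call rule not given here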;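 on HepSE cholecystitis: Cholecystitis-related hepatic side effect score drawn from the DILIps (drug-induced liver injury prediction) training data set; call rule not given here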;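 on HepSE cholelithiasis: hepatic side effect score for cholelithiasis, drawn from the DILIps training data for predicting drug-induced liver injury; call rule not given here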;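 on HepSE cirrhosis: cirrhosis hepatic side effect score taken from the DILIps (drug-induced liver injury prediction) training set; call rule not given here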;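 on HepSE elevated liver function tests: hepatic side effect score for raised liver function tests, as recorded in the DILIps training set used for predicting drug-induced liver injury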; on HepSE hepatic failure: call rule not given here;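 on HepSE hepatomegaly: hepatic side effect score for hepatomegaly, taken from the training set of the DILIps drug-induced liver injury prediction system; call rule not given here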
Hepatotoxicity [3] = tested on: Hepatotoxicity; remark: listed apart in the source;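 on HepSE bilirubinemia: bilirubinemia hepatic side effect score drawn from the DILIps training data, a prediction system for drug-induced liver injury; call rule not given here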;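 on HepSE cholecystitis: Cholecystitis-related hepatic side effect score drawn from the DILIps (drug-induced liver injury prediction) training data set; call rule not given here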;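 on HepSE cholelithiasis: hepatic side effect score for cholelithiasis, drawn from the DILIps training data for predicting drug-induced liver injury; call rule not given here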;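 on HepSE cirrhosis: cirrhosis hepatic side effect score taken from the DILIps (drug-induced liver injury prediction) training set; call rule not given here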;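 on HepSE elevated liver function tests: hepatic side effect score for raised liver function tests, as recorded in the DILIps training set used for predicting drug-induced liver injury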; on HepSE hepatic failure: call rule not given here
Hepatotoxicity [4] = tested on: Hepatotoxicity; remark: listed apart in the source;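 on HepSE bilirubinemia: bilirubinemia hepatic side effect score drawn from the DILIps training data, a prediction system for drug-induced liver injury; call rule not given here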;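 on HepSE cholecystitis: Cholecystitis-related hepatic side effect score drawn from the DILIps (drug-induced liver injury prediction) training data set; call rule not given here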;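 on HepSE cholelithiasis: hepatic side effect score for cholelithiasis, drawn from the DILIps training data for predicting drug-induced liver injury; call rule not given here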;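 on HepSE cirrhosis: cirrhosis hepatic side effect score taken from the DILIps (drug-induced liver injury prediction) training set; call rule not given here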;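 on HepSE elevated liver function tests: hepatic side effect score for raised liver function tests, as recorded in the DILIps training set used for predicting drug-induced liver injury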; on HepSE hepatic failure: call rule not given here
Hepatotoxicity [5] = tested on: Hepatotoxicity; remark: listed apart in the source; on HepSE hepatic failure: call rule not given here
Hepatotoxicity [6] = tested on: Hepatotoxicity; remark: listed apart in the source; on HepSE hepatic failure: call rule not given here
Hepatotoxicity [7] = tested on: Hepatotoxicity; remark: listed apart in the source
Hepatotoxicity [8] = tested on: Hepatotoxicity; remark: listed apart in the source
Hepatotoxicity [9] = tested on: Hepatotoxicity; remark: listed apart in the source
Hepatotoxicity [10] = tested on: Hepatotoxicity; remark: listed apart in the source
Hepatotoxicity [11] = tested on: Hepatotoxicity; remark: listed apart in the source
Hepatotoxicity [12] = tested on: Hepatotoxicity; remark: listed apart in the source
Hepatotoxicity [13] = tested on: Hepatotoxicity; remark: listed apart in the source
Hepatotoxicity [14] = tested on: Hepatotoxicity; remark: listed apart in the source

| Structure (SMILES) | HepSE_bilirubinemia (Hepatotoxicity [1]) | HepSE_cholecystitis (Hepatotoxicity [2]) | HepSE_cholelithiasis (Hepatotoxicity [3]) | HepSE_cirrhosis (Hepatotoxicity [4]) | HepSE_elevated liver function tests (Hepatotoxicity [5]) | HepSE_hepatic failure (Hepatotoxicity [6]) | HepSE_hepatic necrosis (Hepatotoxicity [7]) | HepSE_hepatitis (Hepatotoxicity [8]) | HepSE_hepatomegaly (Hepatotoxicity [9]) | HepSE_jaundice (Hepatotoxicity [10]) | HepSE_liver disease (Hepatotoxicity [11]) | HepSE_liver fatty (Hepatotoxicity [12]) | HepSE_liver function tests abnormal (Hepatotoxicity [13]) | HepSE_Combined Scores (Hepatotoxicity [14]) | other results |
| --- | --- | --- | --- | --- | --- | --- | --- | --- | --- | --- | --- | --- | --- | --- | --- |
| C=C1[C@H](CO)[C@@H](O)C[C@@H]1n1cnc2c(=O)[nH]c(N)nc21.O | 0 | 0 | 0 | 0 | 0 | 0 | 0 | 1 | 1 | 0 | 0 | 0 | 0 | 2 | – |
| COc1cc2nc(N3CCN(C(=O)C4COc5ccccc5O4)CC3)nc(N)c2cc1OC (configuration not stated) [DOXAZOSIN] | 0 | 0 | 1 | 0 | 0 | 0 | 0 | 1 | 0 | 1 | 0 | 0 | 1 | 4 | – |
| CCC[C@@H]1C[C@@H](C(=O)N[C@@H]([C@H]2O[C@H](SC)[C@H](O)[C@@H](O)[C@H]2O)[C@@H](C)O)N(C)C1 [LINCOMYCIN] | 0 | 0 | 0 | 0 | 0 | 0 | 0 | 0 | 0 | 1 | 0 | 0 | 1 | 2 | – |
| CCCN(CCC)CCc1cccc2c1CC(=O)N2 [ROPINIROLE] | 1 | 1 | 1 | 0 | 0 | 0 | 0 | 1 | 0 | 0 | 0 | 0 | 0 | 4 | – |
| CCCCNc1cc(C(=O)O)cc(S(N)(=O)=O)c1Oc1ccccc1 [BUMETANIDE] | 0 | 0 | 0 | 0 | 0 | 0 | 0 | 0 | 0 | 0 | 1 | 0 | 0 | 1 | – |
| CCCCCCCC(=O)CC[C@@H]1[C@@H](C/C=C\CCCC(=O)O)[C@@H](O)C[C@H]1O [UNOPROSTONE] | 0 | 0 | 0 | 0 | 0 | 0 | 0 | 0 | 0 | 0 | 0 | 0 | 0 | 0 | – |
| N=C(N)NCCN1CCCCCCC1 [GUANETHIDINE] | 0 | 0 | 0 | 0 | 0 | 0 | 0 | 0 | 0 | 0 | 0 | 0 | 0 | 0 | – |
| CC12CC3CC(C)(C1)CC(N)(C3)C2 [MEMANTINE] | 0 | 0 | 1 | 0 | 0 | 1 | 0 | 1 | 0 | 0 | 0 | 0 | 0 | 3 | – |
| CCn1nc(C(=O)O)c(=O)c2cc3c(cc21)OCO3 [CINOXACIN] | 0 | 0 | 0 | 0 | 0 | 0 | 0 | 0 | 0 | 0 | 0 | 0 | 0 | 0 | – |
| CC(C(=O)O)c1cccc(Oc2ccccc2)c1 (configuration not stated) [FENOPROFEN] | 0 | 0 | 0 | 0 | 0 | 0 | 0 | 1 | 0 | 1 | 0 | 0 | 0 | 2 | – |
| O=C1NC(=O)C(c2ccccc2)(c2ccccc2)N1 [PHENYTOIN] | – | – | – | – | – | – | – | – | – | – | – | – | – | – | HepSE_bilirubinemia (Hepatotoxicity [1]; Liver): 0; HepSE_cholecystitis (Hepatotoxicity [2]; Liver): 0; HepSE_cholelithiasis (Hepatotoxicity [3]; Liver): 0; HepSE_cirrhosis (Hepatotoxicity [4]; Liver): 0; HepSE_elevated liver function tests (Hepatotoxicity [5]; Liver): 0; HepSE_hepatic failure (Hepatotoxicity [6]; Liver): 0; HepSE_hepatic necrosis (Hepatotoxicity [7]; Liver): 0; HepSE_hepatitis (Hepatotoxicity [8]; Liver): 1; HepSE_hepatomegaly (Hepatotoxicity [9]; Liver): 0; HepSE_jaundice (Hepatotoxicity [10]; Liver): 0; HepSE_liver disease (Hepatotoxicity [11]; Liver): 0; HepSE_liver fatty (Hepatotoxicity [12]; Liver): 0; HepSE_liver function tests abnormal (Hepatotoxicity [13]; Liver): 0; HepSE_Combined Scores (Hepatotoxicity [14]; Liver): 1 |
| CC(=O)[C@@]1(O)CC[C@H]2[C@@H]3C[C@H](C)C4=CC(=O)CC[C@]4(C)[C@H]3CC[C@@]21C | – | – | – | – | – | – | – | – | – | – | – | – | – | – | HepSE_bilirubinemia (Hepatotoxicity [1]; Liver): 0; HepSE_cholecystitis (Hepatotoxicity [2]; Liver): 0; HepSE_cholelithiasis (Hepatotoxicity [3]; Liver): 1; HepSE_cirrhosis (Hepatotoxicity [4]; Liver): 0; HepSE_elevated liver function tests (Hepatotoxicity [5]; Liver): 0; HepSE_hepatic failure (Hepatotoxicity [6]; Liver): 1; HepSE_hepatic necrosis (Hepatotoxicity [7]; Liver): 0; HepSE_hepatitis (Hepatotoxicity [8]; Liver): 1; HepSE_hepatomegaly (Hepatotoxicity [9]; Liver): 1; HepSE_jaundice (Hepatotoxicity [10]; Liver): 1; HepSE_liver disease (Hepatotoxicity [11]; Liver): 0; HepSE_liver fatty (Hepatotoxicity [12]; Liver): 0; HepSE_liver function tests abnormal (Hepatotoxicity [13]; Liver): 0; HepSE_Combined Scores (Hepatotoxicity [14]; Liver): 5 |
| COC1=CC(=O)C[C@@H](C)[C@]12Oc1c(Cl)c(OC)cc(OC)c1C2=O [GRISEOFULVIN] | 0 | 0 | 0 | 0 | 0 | 0 | 0 | 0 | 0 | 0 | 0 | 0 | 0 | 0 | – |
